ChEMBL document CHEMBL3758113, “Stelliosphaerols A and B, Sesquiterpene-Polyol Conjugates from an Ecuadorian Fungal Endophyte” (2015)
Converted amounts (≈) assume the structure as drawn.

Tested on: Staphylococcus aureus
Assay: Antibacterial activity against Staphylococcus aureus measured every 10 mins for 8 hrs by liquid culture growth inhibition assay
Assay type: functional

SMILES | MIC [µg/mL]
CC1=CCC[C@@H](C)[C@]1(C)CC/C(C)=C/CO[C@@H]([C@H](O)[C@H](O)CO)[C@H](O)CO | 250 (≈ 647 µM)
CC1=CCC[C@@H](C)[C@]1(C)CC/C(=C/CO[C@@H]([C@H](O)[C@H](O)CO)[C@H](O)CO)CO | 250 (≈ 621 µM)
